{
  "source": "patent US8633204B2",
  "about": "(Pfizer Inc., priority 2006, dated 2014)",
  "key": {"[1]": {"test_system": "PI3-K in BT20 cells (phosphorylation of AKT at serine 473)", "experiment": "PI3-Kα Cellular Assay (AKT Ser473 phosphorylation ELISA in BT20 cells)", "format": "cell-based, human", "conditions": "Homo sapiens, BT-20, pAKT Ser473 ELISA, 1 hour incubation", "method_in_brief": "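Cells seeded overnight in 0.5% FBS, then exposed 1 h at 37 °C to an 11-concentration 1:3 dilution series, in duplicate.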"}, "U87MG tumor model": {"test_system": "U87MG tumor model", "experiment": "Mouse xenograft efficacy study, U87MG", "format": "in vivo", "conditions": "for Growth Inhibition (%): U87 MG glioma xenograft", "procedure": "The in vivo efficacy of 2-amino-8-(trans-4-hydroxycyclohexyl)-6-(6-methoxypyridin-3-yl)-4-methylpyrido[2,3-d]pyrimidin-7(8H)-one (Compound 152) disclosed in Example 53 was examined in s.c. xenograft model. Human tumor cell lines PC3 (PTEN deletion)), U87MG (PTEN deletion) and SKOV3 (PI3Kα […]) were chosen for in vivo efficacy studies due to their different genetic background and relatively high levels of phospho AKT S473 signal. Cells were implanted in the hind flank of athymic mice and tumors grew in size to 100-200 mm^3 before daily oral treatment with Compound 152 was initiated. […] For all models tested 1 mg/kg was an efficacious dose.\nAnimal Care: Female and male athymic mice (6-8 weeks old) weighing ˜22 g were obtained from Charles River Laboratory. Animal were housed on a 12 h light/dark cycle in the Pfizer vivarium and all procedures are conducted in accordance with the Pfizer Institutional Animal Care and Use Committee (IACUC). Animals are provided free access to rodent chow and water ad libitum and maintained under clean room conditions. Prior to study start animals acclimate for at least 48 h.\nCell lines: All cell lines were cultured at 37° C. in humidified 5% CO2 incubator. U87 MG glioblastoma tumor cell line was obtained from American Type Culture Collection (ATCC) and cultured with DMEM supplemented with 15% FBS and 2 mM glutamine. PC3 prostate cancer cell line were obtained from National Cancer Institute and cultured in RPMI media supplemented with 10% FBS and 2 mM glutamine. SKOV3 ovarian cancer cells were obtained from ATCC and passaged multiple times through mice, and cultured in McCoy's 5A media supplemented with 10% FBS and 2 mM glutamine. All cell lines were tested by University of Missouri Research Animal Diagnostic Laboratory for known species of murine viruses and mycoplasma contamination.\nMouse Xenograft Models: U87MG (glioblastoma), PC3 (prostate cancer) and SKOV3 (ovarian cancer) cell lines in culture were harvested by trypsinisation. Briefly, 2.5−4×10^6 tumor cells were suspended in the medium used to culture each cell line without serum and implanted sub-cutaneously (s.c) into the hind flank region of mice on day 0. Daily treatment with Compound 152, formulated in 10% ethanol, 40% PEG and 50% sodium citrate buffer or vehicle alone commenced 10-14 d after implantation when average tumors were 100-200 mm^3 in size. Tumors were measured twice weekly and tumor volume was calculated as a product of (length×width^2)/2. Studies were typically terminated when the tumor in the vehicle treated animals reached a size of >1500 mm3 or when judged to adversely affect the well being of the animal. […] Where applicable, percent tumor regression for each group was calculated as 100×(tumor volumeinitial−tumor volumefinal)/(tumor volumeinitial). A cohort of 12 animals was used for each dose group for efficacy studies. A representative cohort of animals were sacrificed at the times indicated, tumors resected, and a blood sample taken from the cardiac left ventricle and immediately placed in a vial primed with heparin sulfate. Typically one half of the tumor was fixed in 10% neutral buffered formalin, paraffin embedded, and sectioned for immunohistochemistry. The other half was frozen in liquid nitrogen and later processed to generate cell lysates for target modulation studies."}, "[2]": {"conditions": "U87MG tumor model, daily oral treatment"}},
  "note": "Entries after “also recorded” stand apart in the source; their conditions may differ.",
  "data": [
    {"smiles": "COc1ccc(-c2cc3c(C)nc(N)nc3n([C@H]3CC[C@H](O)CC3)c2=O)cn1", "note": "[Compound 152, 2-amino-8-(trans-4-hydroxycyclohexyl)-6-(6-methoxypyridin-3-yl)-4-methylpyrido[2,3-d]pyrimidin-7(8H)-one]", "values": [
      {"measurement": "IC50", "setting": "[1]", "result": 3.6, "unit": "nM"},
      {"measurement": "Growth Inhibition (%)", "setting": "U87MG tumor model; 0.1 mg/kg/day oral", "result": 18, "unit": "%"},
      {"measurement": "Growth Inhibition (%)", "setting": "U87MG tumor model; 0.3 mg/kg/day oral", "result": 56, "unit": "%"},
      {"measurement": "Growth Inhibition (%)", "setting": "U87MG tumor model; 1.0 mg/kg/day oral", "result": 76, "unit": "%"},
      {"measurement": "anti-tumor efficacy", "setting": "U87MG tumor model; [2]", "result": "dose-dependent anti-tumor efficacy; also recorded: growth inhibition"},
      {"measurement": "efficacious dose", "setting": "U87MG tumor model; [2]", "result": 1, "unit": "mg/kg"}
    ]}
  ]
}
